We go through 14 compounds from US20230192617A1, “AZABICYCLIC(THIO)AMIDES AS FUNGICIDAL COMPOUNDS” (Bayer CropScience Aktiengesellschaft, priority 2020, published 2023).

In one assay the test system is Sphaerotheca fuliginea. The assay can be described thus: In vivo preventive test on Sphaerotheca fuliginea (powdery mildew on cucurbits). Conditions: Podosphaera fuliginea, 192 h; 500 ppm of active ingredient; preventive spray on gherkin; evaluated 8 days after inoculation; read-out: efficacy. The method, boiled down:
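Young gherkin plants were sprayed with compound in DMSO/acetone/Tween 80 diluted in water. They were inoculated 24 h later with a spore suspension of Sphaerotheca fuliginea. Plants were then kept for 8 days at 20 °C and 70–80% relative humidity.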

The subject of assay [1] is Botrytis cinerea. The assay can be described thus: B-11. Botrytis cinerea in vitro cell test. Conditions: 144 h, 20 ppm of active ingredient, 6 days incubation, liquid culture, absorbance, read-out: efficacy (inhibition of fungal growth). The format is cell-based. The gist of the method:
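B. cinerea spores were grown in liquid culture with compound (DMSO ≤1% final). Mycelium growth was measured spectrometrically after 6 days, with inhibition taken as absorbance relative to untreated control wells.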

For another assay, the system named is Septoria tritici. The assay can be described thus: B-9. Septoria tritici in vitro cell test. The format is cell-based. The note with it: Zymoseptoria tritici, 168 h; 20 ppm of active ingredient; 7 days incubation; liquid culture, absorbance; read-out: efficacy (inhibition of fungal growth). The method, boiled down: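 Compounds from DMSO stocks (final DMSO ≤1%) were added to liquid medium containing S. tritici spores to test inhibition of germination and mycelial growth. After 7 days, mycelium growth was read spectrometrically and inhibition derived from absorbance versus fungicide-free control wells.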

For assay [2], the system named is Colletotrichum lindemuthianum. In words: In vivo preventive test on Colletotrichum lindemuthianum (leaf spot on bean). Conditions: 168 h, 500 ppm of active ingredient, preventive spray on bean, evaluated 7 days after inoculation, read-out: efficacy. The gist of the method: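 Young bean plants sprayed with compound in DMSO/acetone/Tween 80 diluted in water; solvent-only controls. Inoculated 24 h later with C. lindemuthianum spore suspension, then kept 24 h at 20 °C/100% RH and 6 days at 20 °C/90% RH.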

In a further assay the test system is Pyrenophora teres. In words: B-10. Pyrenophora teres in vitro cell test. The note with it: 144 h, 20 ppm of active ingredient, 6 days incubation, liquid culture, absorbance, read-out: efficacy (inhibition of fungal growth). The format is cell-based. The gist of the method: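 Liquid-culture assay on a P. teres spore suspension with compounds added to the medium from DMSO solutions, final DMSO ≤1%. Mycelium growth read spectrometrically after 6 days. Inhibition calculated from absorbance against untreated control wells.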

Assay [3] relates to Botrytis cinerea. In words: In vivo preventive test on Botrytis cinerea (grey mould). Conditions: 500 ppm of active ingredient, preventive spray on gherkin or cabbage, evaluated 4 to 5 days after inoculation, read-out: efficacy. The method, boiled down:
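Young gherkin or cabbage plants were sprayed with compound in DMSO/acetone/Tween 80 diluted in water, then inoculated 24 hours later with a B. cinerea spore suspension. Incubation lasted 4 to 5 days: gherkin at 17° C., 90% relative humidity; cabbage at 20° C., 100% relative humidity.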

The next assay has as its system Alternaria brassicae. In words: In vivo preventive test on Alternaria brassicae (leaf spot on radish or cabbage). Conditions: 500 ppm of active ingredient, preventive spray on radish or cabbage, evaluated 3 to 4 days after inoculation, read-out: efficacy. The method, boiled down:
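Young radish or cabbage plants were sprayed with compound dissolved in DMSO/acetone/Tween 80 and diluted in water; controls received solvent only. Inoculation by spraying A. brassicae spore suspension 24 h later, then 3–4 days at 20 °C and 100% relative humidity.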

The subject of assay [4] is Colletotrichum lindemuthianum. In words: B-8. Colletotrichum lindemuthianum in vitro cell test. The format is cell-based. The note with it: 144 h, 20 ppm of active ingredient, 6 days incubation, liquid culture, absorbance, read-out: efficacy (inhibition of fungal growth). The gist of the method:
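Spore suspension of C. lindemuthianum in liquid medium exposed to DMSO-solubilized compounds (final DMSO ≤1%) for 6 days. Mycelial growth read by absorbance, with inhibition calculated relative to compound-free control wells.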

With `O=C(NC[C@H](F)c1ccc(Cl)cc1Cl)c1c(Oc2cccc(C(F)(F)F)c2)cnc2ccoc12` (racemic) [I-067], the pest or weed control at 500 ppm (with Sphaerotheca fuliginea; in assay [2]; with Botrytis cinerea [3]; with Alternaria brassicae) was 90 to 100% throughout. Further, the inhibition at 20 ppm in the assay on Botrytis cinerea [1] fell in the range of 90 to 100%; with Septoria tritici, 70 to 79%; in the assay with Pyrenophora teres it was 90 to 100%; in assay [4], 90 to 100%.

For the compound `Cc1ccc(C(F)(F)CNC(=O)c2c(Oc3cccc(C4CC4)c3F)nnc3c2CCCC3)c(Cl)c1` [I-141], the pest or weed control at 500 ppm (in the assay with Sphaerotheca fuliginea; in assay [2]; in the assay on Botrytis cinerea [3]; in the assay on Alternaria brassicae) was 90 to 100% each time. The inhibition at 20 ppm (in the assay with Botrytis cinerea [1]; with Septoria tritici; in the assay on Pyrenophora teres; in assay [4]) was 90 to 100% throughout.

With `Cc1ccc(C(F)(F)CNC(=O)c2c(Oc3cccc(Br)c3F)nnc3ccccc23)c(C)c1` [I-227], the pest or weed control at 500 ppm was in the range of 90 to 100% in the assay on Sphaerotheca fuliginea, 80 to 89% in assay [2], 90 to 100% with Botrytis cinerea [3] and 90 to 100% in the assay on Alternaria brassicae. Further, the inhibition at 20 ppm in the assay with Botrytis cinerea [1] lay in the range of 90 to 100%; in the assay with Septoria tritici, 70 to 79%; in the assay on Pyrenophora teres it was 90 to 100%; in assay [4], 90 to 100%.

Consider `Cc1ccc(C(F)(F)CNC(=O)c2c(Oc3cccc(C4CC4)c3F)nnc3ccccc23)c(C)c1` [I-071, 3-(3-cyclopropyl-2-fluoro-phenoxy)-N-[2-(2,4-dimethyl-phenyl)-2,2-difluoro-ethyl]cinnoline-4-carboxamide], for which the pest or weed control at 500 ppm (in the assay on Sphaerotheca fuliginea; in assay [2]; in the assay with Botrytis cinerea [3]; in the assay with Alternaria brassicae) was 90 to 100% each time. The inhibition at 20 ppm was in the range of 90 to 100% in the assay on Botrytis cinerea [1], 80 to 89% in the assay on Septoria tritici, 90 to 100% in the assay on Pyrenophora teres and 90 to 100% in assay [4].

With `Cc1ccc(C(F)CNC(=O)c2c(Oc3cccc(C4CC4)c3F)nnc3c2CCCC3)c(C)c1` (stereo not shown) [I-137], the pest or weed control at 500 ppm (in the assay with Sphaerotheca fuliginea; in assay [2]; in the assay with Botrytis cinerea [3]; in the assay with Alternaria brassicae) was 90 to 100% throughout. Further, the inhibition at 20 ppm in the assay with Botrytis cinerea [1] lay in the range of 90 to 100%; in the assay on Septoria tritici it was 70 to 79%; in the assay on Pyrenophora teres, 90 to 100%; in assay [4], 90 to 100%.

In the case of `Cc1ccc(C(F)(F)CNC(=O)c2c(Oc3cccc(C4CC4)c3F)nnc3c2CCCC3)c(C)c1` [I-131], the pest or weed control at 500 ppm (in the assay on Sphaerotheca fuliginea; in assay [2]; in the assay with Botrytis cinerea [3]; in the assay on Alternaria brassicae) was 90 to 100% in each case. Also, the inhibition at 20 ppm (with Botrytis cinerea [1]; with Septoria tritici; in the assay with Pyrenophora teres; in assay [4]) was 90 to 100% each time.

Turning to `Cc1ccc(C(F)(F)CNC(=O)c2c(Oc3cccc(Cl)c3F)nnc3c2CCCC3)c(Cl)c1` [I-140, 3-(3-chloro-2-fluoro-phenoxy)-N-[2-(2-chloro-4-methyl-phenyl)-2,2-difluoro-ethyl]-5,6,7,8-tetrahydrocinnoline-4-carboxamide], the pest or weed control at 500 ppm (with Sphaerotheca fuliginea; in assay [2]; with Botrytis cinerea [3]; in the assay on Alternaria brassicae) was 90 to 100% each time. The inhibition at 20 ppm (in the assay on Botrytis cinerea [1]; with Septoria tritici; in the assay on Pyrenophora teres; in assay [4]) was 90 to 100% in each case.

In the case of `Cc1ccc(C(F)(F)CNC(=O)c2c(Oc3cccc(C(F)(F)F)c3)nnc3c2CCC3)c(C)c1` [I-132], the pest or weed control at 500 ppm (in the assay on Sphaerotheca fuliginea; in assay [2]; in the assay with Botrytis cinerea [3]; with Alternaria brassicae) was 90 to 100% throughout. In addition, the inhibition at 20 ppm (with Botrytis cinerea [1]; with Septoria tritici; in the assay on Pyrenophora teres; in assay [4]) was 90 to 100% in each case.

Turning to `Cc1ccc(C(F)(F)CNC(=O)c2c(Oc3cccc(Cl)c3)nnc3c2CCCC3)c(Cl)c1` [I-139], the pest or weed control at 500 ppm (in the assay with Sphaerotheca fuliginea; in assay [2]; with Botrytis cinerea [3]; in the assay with Alternaria brassicae) was 90 to 100% each time. Moreover, the inhibition at 20 ppm (with Botrytis cinerea [1]; in the assay on Septoria tritici; with Pyrenophora teres; in assay [4]) was 90 to 100% in each case.

As to `O=C(NCC(F)c1ccc(Cl)cc1Cl)c1c(Oc2cccc(C(F)(F)F)c2)nnc2c1CCC2` (stereo not shown) [I-186], the pest or weed control at 500 ppm (in the assay on Sphaerotheca fuliginea; in assay [2]; in the assay with Botrytis cinerea [3]; in the assay with Alternaria brassicae) was 90 to 100% in each case. Moreover, the inhibition at 20 ppm (with Botrytis cinerea [1]; with Septoria tritici; in the assay on Pyrenophora teres; in assay [4]) was 90 to 100% in each case.

Turning to `Cc1ccc(C(F)(F)CNC(=O)c2c(Oc3cccc(Cl)c3)nnc3c2CCCC3)c(C)c1` [I-121], the pest or weed control at 500 ppm (with Sphaerotheca fuliginea; in assay [2]; in the assay on Botrytis cinerea [3]; in the assay with Alternaria brassicae) was 90 to 100% throughout. For the same compound, the inhibition at 20 ppm (in the assay on Botrytis cinerea [1]; in the assay with Septoria tritici; with Pyrenophora teres; in assay [4]) was 90 to 100% in each case.

Consider `O=C(NCC(F)c1ccc(Cl)cc1Cl)c1c(Oc2cccc(C(F)(F)F)c2)nnc2c1CCCC2` (stereo not shown) [I-118], for which the pest or weed control at 500 ppm (in the assay on Sphaerotheca fuliginea; in assay [2]; with Botrytis cinerea [3]; in the assay with Alternaria brassicae) was 90 to 100% in each case. In addition, the inhibition at 20 ppm (in the assay with Botrytis cinerea [1]; in the assay with Septoria tritici; in the assay with Pyrenophora teres; in assay [4]) was 90 to 100% each time.

Turning to `Cc1ccc(C(F)(F)CNC(=O)c2c(Oc3cccc(Br)c3)nnc3ccccc23)c(C)c1` [I-216], the pest or weed control at 500 ppm (in the assay on Sphaerotheca fuliginea; in assay [2]; with Botrytis cinerea [3]; in the assay on Alternaria brassicae) was 90 to 100% each time. For the same compound, the inhibition at 20 ppm with Botrytis cinerea [1] lay in the range of 90 to 100%; in the assay on Septoria tritici, 80 to 89%; in the assay with Pyrenophora teres, 90 to 100%; in assay [4], 90 to 100%.

With `Cc1ccc(C(F)(F)CNC(=O)c2c(Oc3cccc(C4CC4)c3F)nnc3c2CCC3)c(Cl)c1` [I-144], the pest or weed control at 500 ppm (with Sphaerotheca fuliginea; in assay [2]; in the assay with Botrytis cinerea [3]; in the assay with Alternaria brassicae) was 90 to 100% each time. Moreover, the inhibition at 20 ppm is 90 to 100% with Botrytis cinerea [1], 80 to 89% in the assay with Septoria tritici, 90 to 100% in the assay on Pyrenophora teres and 90 to 100% in assay [4].
